Measured values reported in patent US11071746B2, “Compositions and methods for protecting organs from ischemia/reperfusion injury associated with transplantation” (THE TRUSTEES OF THE UNIVERSITY OF PENNSYLVANIA, priority 2016, dated 2021).

Tests used:
[1] = LC/MS/MS drug levels in lung tissue, BALF and perfusate during ex vivo lung perfusion (EVLP); parameters: species or system human
Method: (§1) Donor lungs were offered to our lung-transplantation program through our local organ procurement organization (Gift of Life) and were de-identified. Donor lungs that met the entry criteria (i.e., non-transplantable) were retrieved, delivered to our center by means of standard cold-storage transport in a low-potassium dextran solution (Perfadex, Vitrolife), and perfused in the EVLP system for 3-6 hours. Lungs were considered suitable for transplantation if during EVLP the PO2:FIO2 ratio—that is, the partial pressure of oxygen ex vivo (PO2) to the fraction of inspired oxygen (FIO2)—was 350 mm Hg or more and if deterioration from baseline levels of all three physiological measurements (pulmonary vascular resistance, dynamic compliance, and peak inspiratory pressure) was less than 15% while the lungs were ventilated with the use of a tidal volume of 7 ml per kilogram of donor body weight and a rate of 7 breaths per minute during the perfusion period (FIG. 1)
(§2) Technique: The acellular EVLP technique has been described in detail elsewhere (Cypel et al., N Engl J Med. 2011 Apr. 14; 364(15):1431-40). After 3-6 hours of EVLP, the lungs were cooled to 4° C. over a period of 10 minutes. Thereafter, perfusion and ventilation were stopped (with FIO2 changed to 0.21 for the purpose of lung storage), and the trachea was clamped at full inspiration to maintain the lungs in a state of inflation. The lungs were then stored at 4° C. in Perfadex until transplantation.
LGM2605 (SDG) ACCUMULATES IN HUMAN LUNG TISSUES: Using LC/MS/MS analytical methodologies, we determined synthetic SDG (LGM2605) levels in left and right lung tissues, in bronchoalveolar lavage fluid (BALF) and perfusate fluid over multiple time points spanning from 30 minutes post aerosolized instillation of 200 mg drug/lung, to 360 minutes (FIG. 2). Of importance is that aerosolized SDG (LGM2605) (i.e, instilled in airways), leaks into the systemic circulation and can be detected in the perfusate for at least 240 minutes. Importantly, levels in lung tissue biopsies show a peak of drug by 120 minutes, persisting for up to 240 minutes. Additionally, levels in BALF persist beyond 360 min.

GSTMu1 = assay: qRT-PCR gene expression in EVLP lung tissues: GSTM1; parameters: species or system human; settings: EVLP #4, treated lung vs vehicle-treated lung, 120' sampling time
Method: (§3) GENE EXPRESSION LEVEL OF THE NRF2-REGULATED STRESS RESPONSE ENZYME HO-1: In a separate study (EVLP #4), SDG (LGM2605) was instilled only in one lung (right) while vehicle control was instilled in the contralateral lung (FIG. 4). The concentration of the drug (200 mg/lung) was kept the same as above. […] A drop in the left lung may reflect action of SDG (LGM2605) on that lung through the perfusate (we have shown above that some of the drug appears into the systemic circulation).
(§4) GENE EXPRESSION LEVELS OF THE NRF2-REGULATED ANTIOXIDANT ENZYMES NQO1 AND GSTM1 INCREASE IN HUMAN LUNG (EVLP) TISSUES TREATED WITH LGM2605 (SDG): Nrf2 is a transcription factor that regulates the expression of antioxidant and cytoprotective genes such as NQO-1 and GSTMu1. […] Our findings confirm that SDG boosts endogenous antioxidant defenses in human lung tissues during ischemia (FIG. 6).

IL-6 = assay: qRT-PCR gene expression in EVLP lung tissues: IL-6; parameters: species or system human; settings: EVLP #4, treated right lung vs vehicle-treated lung
Method: as §3
(§5) Our findings confirm that SDG decreases inflammatory parameters in human lung tissues during ischemia.

NQO-1 = assay: qRT-PCR gene expression in EVLP lung tissues: NQO1; parameters: species or system human; settings: EVLP #4, treated lung vs vehicle-treated lung, 120' sampling time
Method: as §3, §4

COX-2 = assay: qRT-PCR gene expression in EVLP lung tissues: COX-2; settings: aerosolized instillation, human EVLP lung tissues
Method: as §3
GENE EXPRESSION LEVELS OF THE COX-2 (AN ENZYME PROMOTING INFLAMMATION AND PAIN) DECREASE IN HUMAN LUNG (EVLP) TISSUES TREATED WITH LGM2605 (SDG): Cyclo-oxygenease-2 is an enzyme responsible for the formation of prostanoids such as thromboxane and prostanglandins. Pharmacological inhibition of COX can provide relief from symptoms of inflammation and pain. […] A drop in the vehicle-treated lung may reflect action of the drug via the perfusate (systemic circulation—FIG. 8).

human donor lungs = assay: Ex vivo functional assessment (oxygenation, compliance) of EVLP human donor lungs; settings: aerosolized drug, EVLP #3 human lung
Method: as §1, §2
Ex Vivo Functional Assessment: For the functional assessment ex vivo, tidal volume was set at 10 ml per kilogram of donor body weight and 10 breaths per minute, with FIO2 at 1.0. Lung function was evaluated hourly during EVLP according to the following calculations: PO2=[left atrial PO2−pulmonary-artery PO2 (in mm Hg)], and pulmonary vascular resistance=[(pulmonary-artery pressure-left atrial pressure)×80]÷pulmonary-artery flow (in dynes·seconds·cm^−5), dynamic compliance (in milliliters per centimeter of water), and peak inspiratory pressure (in centimeters of water). […]

hemeoxygenase-1 (HO-1) = assay: qRT-PCR gene expression in EVLP lung tissues: HO-1; parameters: species or system human; settings: EVLP #4, 200 mg/lung instilled in right lung, vehicle in contralateral lung
Method: as §3

IL-1β = assay: qRT-PCR gene expression in EVLP lung tissues: IL-1β; parameters: species or system human; settings: EVLP #4, treated right lung vs vehicle-treated lung
Method: as §3, §5

[2] = aerosolized instillation of 200 mg drug/lung, human EVLP lungs, lung tissue biopsies

persistence of drug levels in BALF ([1]; aerosolized instillation of 200 mg drug/lung, human EVLP lungs, BALF): > 360 min | persistence of drug levels in lung tissue biopsies [1, 2]: up to 240 minutes | time of peak of drug in lung tissue biopsies [1, 2]: ≤ 120 min | time drug can be detected in the perfusate ([1]; aerosolized instillation of 200 mg drug/lung, human EVLP lungs, perfusate): at least 240 minutes | accumulation in lung ([1]; regardless of route of delivery (inhaled or intravenous)): accumulates in lung | HO-1 gene expression change (hemeoxygenase-1 (HO-1)): drop
Structure (SMILES): COc1cc(C[C@@H](CO[C@@H]2O[C@H](CO)[C@@H](O)[C@H](O)[C@H]2O)[C@H](CO[C@@H]2O[C@H](CO)[C@@H](O)[C@H](O)[C@H]2O)Cc2ccc(O)c(OC)c2)ccc1O [LGM2605, secoisolariciresinol diglucoside]
GSTMu1 gene expression change (GSTMu1): robust increase | IL-6 gene expression change (IL-6): significantly reduced | NQO-1 gene expression change (NQO-1): robust increase | COX-2 gene expression change (COX-2): blocks entirely | time to entire block of COX-2 expression after instillation (COX-2): ≤ 50 min | dynamic compliance (human donor lungs): improving | static compliance (human donor lungs): improving | P/F ratio (oxygenation) after treatment (human donor lungs; improved from 200 before drug): > 350 | IL-1β gene expression change (IL-1β): significantly reduced
